Assay results: BindingDB's records for doi:10.1021/jm950589q (Ibm Thomas J. Watson Research Center, 1996)

Experiment: Inhibitory concentration against HIV-1 replication by interfering with virus reverse transcriptase

Question: Which IC50 does the source give for `CC(C)=CCN1Cc2cccc3[nH]c(=O)n(c23)CC1C` (centres undefined) here?
Answer: The IC50 was 3320 nM.

Question: For `C=C(C)CN1Cc2cccc3[nH]c(=O)n(c23)C(C(C)C)C1` (centres undefined) [9-Isopropyl-7-(2-methyl-allyl)-6,7,8,9-tetrahydro-2H-2,7,9a-triaza-benzo[cd]azulen-1-one], which IC50 is on record?
Answer: Its IC50 is 12600 nM.

Question: With `CC1Cn2c(=S)[nH]c3cc(Cl)cc(c32)CN1CC1CC1` (centres undefined) [4-Chloro-7-cyclopropylmethyl-8-methyl-6,7,8,9-tetrahydro-2H-2,7,9a-triaza-benzo[cd]azulene-1-thione] as the molecule, how does the IC50 read?
Answer: Its IC50 is 34 nM.

Question: For `CC(C)=CCN1[C@H](C)Cn2c(=S)[nH]c3cc(Cl)cc(c32)[C@@H]1C` [(6S,8R)-4-Chloro-6,8-dimethyl-7-(3-methyl-but-2-enyl)-6,7,8,9-tetrahydro-2H-2,7,9a-triaza-benzo[cd]azulene-1-thione], which IC50 is on record?
Answer: The IC50 was 480 nM.

Question: For `CC(C)=CCN1Cc2cc(Cl)cc3[nH]c(=S)n(c23)C[C@@H]1C`, which IC50 is on record?
Answer: Its IC50 is 43 nM.

Question: With `CC(C)=CCN1[C@H](C)Cn2c(=S)[nH]c3cccc(c32)[C@H]1C` [(6R,8R)-6,8-Dimethyl-7-(3-methyl-but-2-enyl)-6,7,8,9-tetrahydro-2H-2,7,9a-triaza-benzo[cd]azulene-1-thione] as the molecule, how does the IC50 read?
Answer: The IC50 was 42 nM.

Question: Which IC50 does the source give for `C=C(C)CN1Cc2cc(Cl)cc3[nH]c(=S)n(c23)C(C)C1` (centres undefined) [4-Chloro-9-methyl-7-(2-methyl-allyl)-6,7,8,9-tetrahydro-2H-2,7,9a-triaza-benzo[cd]azulene-1-thione] here?
Answer: The IC50 was 670 nM.

Question: Which IC50 does the source give for `CC(C)=CCN1Cc2cccc3[nH]c(=O)n(c23)C(C)C1C` (centres undefined) [8,9-Dimethyl-7-(3-methyl-but-2-enyl)-6,7,8,9-tetrahydro-2H-2,7,9a-triaza-benzo[cd]azulen-1-one] here?
Answer: Its IC50 is 56700 nM.

Question: For `CC(C)=CCN1[C@H](C)Cn2c(=S)[nH]c3cccc(c32)[C@@H]1C` [(6S,8R)-6,8-Dimethyl-7-(3-methyl-but-2-enyl)-6,7,8,9-tetrahydro-2H-2,7,9a-triaza-benzo[cd]azulene-1-thione], which IC50 is on record?
Answer: The IC50 was 1150 nM.

Question: With `C=C(C)CN1Cc2cccc3[nH]c(=O)n(c23)C(C)C1` (centres undefined) [9-Methyl-7-(2-methyl-allyl)-6,7,8,9-tetrahydro-2H-2,7,9a-triaza-benzo[cd]azulen-1-one] as the molecule, how does the IC50 read?
Answer: Its IC50 is 32100 nM.

Question: For `CC(C)=CCN1CCn2c(=O)[nH]c3cccc(c32)C1C` (centres undefined) [6-Methyl-7-(3-methyl-but-2-enyl)-6,7,8,9-tetrahydro-2H-2,7,9a-triaza-benzo[cd]azulen-1-one], which IC50 is on record?
Answer: Its IC50 is 12100 nM.

Question: With `CC(C)=CCN1CCn2c(=S)[nH]c3cccc(c32)C1C` (centres undefined) [6-Methyl-7-(3-methyl-but-2-enyl)-6,7,8,9-tetrahydro-2H-2,7,9a-triaza-benzo[cd]azulene-1-thione] as the molecule, how does the IC50 read?
Answer: Its IC50 is 78 nM.

Question: For `CC(C)=CCN1CCn2c(=O)[nH]c3cc(Cl)cc(c32)C1C` (centres undefined) [4-Chloro-6-methyl-7-(3-methyl-but-2-enyl)-6,7,8,9-tetrahydro-2H-2,7,9a-triaza-benzo[cd]azulen-1-one], which IC50 is on record?
Answer: Its IC50 is 160 nM.

Question: For `CC(C)=CCN1CCn2c(=S)[nH]c3cc(Cl)cc(c32)C1` [4-Chloro-7-(3-methyl-but-2-enyl)-6,7,8,9-tetrahydro-2H-2,7,9a-triaza-benzo[cd]azulene-1-thione], which IC50 is on record?
Answer: Its IC50 is 160 nM.

Question: For `CC(C)=CCN1Cc2cc(Cl)cc3[nH]c(=O)n(c23)CC1C` (centres undefined), which IC50 is on record?
Answer: The IC50 was 180 nM.

Question: With `CC(C)=CCN1CCn2c(=S)[nH]c3ccc(Cl)c(c32)C1C` (centres undefined) [5-Chloro-6-methyl-7-(3-methyl-but-2-enyl)-6,7,8,9-tetrahydro-2H-2,7,9a-triaza-benzo[cd]azulene-1-thione] as the molecule, how does the IC50 read?
Answer: The IC50 was 12 nM.

Question: With `CC(C)=CCN1CCn2c(=S)[nH]c3cc(Cl)cc(c32)C1C` (centres undefined) [4-Chloro-6-methyl-7-(3-methyl-but-2-enyl)-6,7,8,9-tetrahydro-2H-2,7,9a-triaza-benzo[cd]azulene-1-thione] as the molecule, how does the IC50 read?
Answer: Its IC50 is 23 nM.

Question: For `C=C(C)CN1Cc2cccc3[nH]c(=O)n(c23)CC1C` (centres undefined), which IC50 is on record?
Answer: The IC50 was 34700 nM.

Question: With `CC(C)=CCN1CC(C)n2c(=S)[nH]c3cccc(c32)C1C` (centres undefined) [6,9-Dimethyl-7-(3-methyl-but-2-enyl)-6,7,8,9-tetrahydro-2H-2,7,9a-triaza-benzo[cd]azulene-1-thione] as the molecule, how does the IC50 read?
Answer: The IC50 was 25800 nM.

Question: For `CC1C(C)n2c(=S)[nH]c3cccc(c32)CN1CC1CC1` (centres undefined) [7-Cyclopropylmethyl-8,9-dimethyl-6,7,8,9-tetrahydro-2H-2,7,9a-triaza-benzo[cd]azulene-1-thione], which IC50 is on record?
Answer: The IC50 was 13400 nM.

Question: Which IC50 does the source give for `CC(C)=CCN1Cc2cccc3[nH]c(=S)n(c23)C(C)C1C` (centres undefined) [8,9-Dimethyl-7-(3-methyl-but-2-enyl)-6,7,8,9-tetrahydro-2H-2,7,9a-triaza-benzo[cd]azulene-1-thione] here?
Answer: The IC50 was 2220 nM.

Question: With `CC(C)=CCN1Cc2c(Cl)ccc3[nH]c(=S)n(c23)C[C@@H]1C` [5-Chloro-8-methyl-7-(3-methyl-but-2-enyl)-6,7,8,9-tetrahydro-2H-2,7,9a-triaza-benzo[cd]azulene-1-thione] as the molecule, how does the IC50 read?
Answer: Its IC50 is 5 nM.

Question: With `C=C(C)CN1Cc2cccc3[nH]c(=S)n(c23)CC1C` (centres undefined) as the molecule, how does the IC50 read?
Answer: The IC50 was 26 nM.

Question: For `CC(C)=CCN1[C@H](C)Cn2c(=O)[nH]c3cc(Cl)cc(c32)[C@@H]1C` [(6S,8R)-4-Chloro-6,8-dimethyl-7-(3-methyl-but-2-enyl)-6,7,8,9-tetrahydro-2H-2,7,9a-triaza-benzo[cd]azulen-1-one], which IC50 is on record?
Answer: The IC50 was 230 nM.

Question: Which IC50 does the source give for `CC(C)=CCN1Cc2cccc3[nH]c(=S)n(c23)C[C@@H]1C` [(11S)-11-methyl-10-(3-methylbut-2-en-1-yl)-1,3,10-triazatricyclo[6.4.1.0^{4,13}]trideca-4(13),5,7-triene-2-thione] here?
Answer: The IC50 was 97 nM.

Question: For `CC1Cn2c(=S)[nH]c3cccc(c32)CN1CC1CC1` (centres undefined), which IC50 is on record?
Answer: Its IC50 is 60 nM.

Question: With `CC(C)=CCN1CCn2c(=S)[nH]c3ccc(Cl)c(c32)C1` [5-Chloro-7-(3-methyl-but-2-enyl)-6,7,8,9-tetrahydro-2H-2,7,9a-triaza-benzo[cd]azulene-1-thione] as the molecule, how does the IC50 read?
Answer: Its IC50 is 46 nM.

Question: For `CC(C)=CCN1CCn2c(=O)[nH]c3ccc(Cl)c(c32)C1C` (centres undefined) [5-Chloro-6-methyl-7-(3-methyl-but-2-enyl)-6,7,8,9-tetrahydro-2H-2,7,9a-triaza-benzo[cd]azulen-1-one], which IC50 is on record?
Answer: The IC50 was 145 nM.

Question: For `C=C(C)CN1Cc2cccc3[nH]c(=O)n(c23)C(CCC)C1` (centres undefined) [7-(2-Methyl-allyl)-9-propyl-6,7,8,9-tetrahydro-2H-2,7,9a-triaza-benzo[cd]azulen-1-one], which IC50 is on record?
Answer: Its IC50 is 48100 nM.
